The values that follow come from patent US6436954B1, “Benzoquinolizidine and benzoindolizidine derivatives and therapeutic uses thereof” (priority 1998, dated 2002).

For test [1], the system named is scopolamine-impaired passive avoidance learning. Briefly: Reversal of scopolamine-induced amnesia of a passive-avoidance response. It is filed as in vivo, Wistar rats. To be noted: mean ± SEM (n). On the procedure:
(b) Reversal of Scopolamine-induced Amnesia of a Passive-avoidance Response.
Postnatal day 80 male Wistar rats (300-350 g) were obtained from the Biomedical Facility, University College, Dublin. These were housed singly in a 12 h light/dark cycle with food and water available ad libitum. Animals employed for neurobehavioral studies were maintained and handled in the test environment for 3 days prior to the commencement of studies. All experimental procedures were approved by the Review Committee of the Biomedical Facility of University College, Dublin and were carried out by individuals who held the appropriate license issued by the Ministry of Health.
Animals were trained in a one-trial, step-through, light-dark passive avoidance paradigm. The apparatus consisted of a box measuring 300 mm wide×260 mm deep×270 mm high. The front and top were transparent, allowing observation of behavior inside the apparatus. The box was divided into two compartments, separated by a central shutter which contained a small opening 50 mm wide and 75 mm high. The smaller of the compartments measured 90 mm in width and contained a low power (6 V V) illumination source—the light compartment. The large compartment measured 210 mm in width and was not illuminated. The floor of the training apparatus consisted of a grid of stainless steel bars which could deliver a remotely-controlled, scrambled shock (0.75 mA every 0.5 msec, 5 sec duration) when the animal entered the dark chamber with all four paws. The animals were tested for recall of this inhibitory stimulus prior to sacrifice by placing them into the light compartment and noting their latency to enter the dark compartment. A criterion period of 300 sec was used. The results of this protocol, after administration of saline, scopolamine, test compound, and scopolaine plus test compound, are presented in Table 3.

Another test deals with T1, acetylcholinesterase (Rattus norvegicus, UniProt P37136).
T1 construct: Wistar rat brain was homogenized in 10% (w/v) of ice-cold Tris-buffered saline; from tissue; host or cells: Wistar rat brain homogenate, 10,000 g supernatant
T1 sequence (P37136 32-614): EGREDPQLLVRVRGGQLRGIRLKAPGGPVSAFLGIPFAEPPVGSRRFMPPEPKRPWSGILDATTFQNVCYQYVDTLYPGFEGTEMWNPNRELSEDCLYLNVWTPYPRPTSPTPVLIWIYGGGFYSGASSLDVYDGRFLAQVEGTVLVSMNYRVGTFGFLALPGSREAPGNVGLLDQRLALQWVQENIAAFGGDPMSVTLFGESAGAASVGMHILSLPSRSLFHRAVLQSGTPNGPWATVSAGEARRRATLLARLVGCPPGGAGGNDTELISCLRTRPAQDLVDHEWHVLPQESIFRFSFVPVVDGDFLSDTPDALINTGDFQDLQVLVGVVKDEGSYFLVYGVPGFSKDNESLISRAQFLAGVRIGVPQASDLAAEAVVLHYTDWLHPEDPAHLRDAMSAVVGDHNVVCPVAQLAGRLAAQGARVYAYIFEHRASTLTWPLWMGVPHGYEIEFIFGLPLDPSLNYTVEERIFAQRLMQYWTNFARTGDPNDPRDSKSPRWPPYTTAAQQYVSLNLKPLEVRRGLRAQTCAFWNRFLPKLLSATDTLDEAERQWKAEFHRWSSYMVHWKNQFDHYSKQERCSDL
In words: Acetylcholinesterase activity in rat brain homogenate (Ellman spectrophotometric method). The format is biochemical, Wistar rat. To be noted: rat brain enzyme preparation. On the procedure: Wistar rat brain was homogenized in 10% (w/v) of ice-cold Tris-buffered saline which comprised 10 mM Tris HCl, pH 7.4, 1 mM ethylenediaminetetraacetic acid, 0.9% (w/v) bovine serum albumin. Homogenates were centrifuged at 10,000 g for 10 minutes at 4° C. Supernatants were decanted and stored in aliquots at −70° C. until required.
Briefly, the assay was carried out at room temperature using 0.1 M phosphate buffer, pH 8.0, containing 0.075 M acetylthiocholine iodide and 0.01 M 5,5-dithio-bis-(2-nitrobenzoic acid) (DTNB). The DTNB was prepared in 0.1 M phosphate buffer, pH 7.0, which contained 0.018 M sodium bicarbonate to ensure stability. The reaction was started by the addition of 100 μg of enzyme preparation to a final assay volume of 3.2 ml, and mixed thoroughly. Progress was monitored spectrophotometrically at 412 nm for a continuous period. A blank was run in conjunction with each assay and differed from the test only in that it contained phosphate buffer in place of acetylthiocholine iodide. AchE was assayed in the presence of ethopropazine, which was prepared in ethanol. […] BCHE was measured in the presence of 10^−5 M 1,5-bis-(4-trimethylammoniophenyl)pentan-3-one dibromide (62C47), a specific acetylcholinesterase inhibitor which was added to a final concentration of 10^−5 M. All solutions were freshly prepared and protected from light. Acetylthiocholine, DTNB, 62C47 and ethopropazine were obtained from Sigma Chemical Co., St. Louis, Mo. All other reagents were of the highest grade available from routine suppliers.
Results are expressed as mM acetylthiocholine hydrolysed/100 ug protein/min in Table 1. […] To facilitate comparison between compounds requiring different solubilization vehicles, the relevant results are expressed as percent of the control value in Table 2.

[2] abbreviates: test compound 10 mg/kg + scopolamine 0.8 mg/kg.
[3] abbreviates: test compound 30 mg/kg + scopolamine 0.8 mg/kg.
The mark [4] stands for this setting: test compound 10 mg/kg alone, 10 mg/kg.

For the compound `c1ccc(CN[C@@H]2c3ccccc3CN3CCCC[C@H]23)cc1` (relative stereo) [Example 13, trans-N-Benzyl-1,3,4,6,11,11a-hexahydro-11-amino-2H-benzo[b]quinolizine], the “passive avoidance latency, Test cpd. + scopolamine” value in test [1] (setting [2]) was 048 ± 14 (5) seconds. For the same compound, the “passive avoidance latency, Test cpd. alone” value in test [1] (test compound 10 mg/kg alone) was 410 ± 115 (6) seconds. Besides, the entries for the “Acetylcholinesterase activity in the presence of compound” value (shortened to “Acetylcholinesterase activity”) on acetylcholinesterase (compound concentration 100 nM), on acetylcholinesterase (compound concentration 10 μM) and on acetylcholinesterase (compound concentration 1.0 mM) were 2.30 mM substrate hydrolyzed/min/100 μg protein, 1.90 mM substrate hydrolyzed/min/100 μg protein and 0.20 mM substrate hydrolyzed/min/100 μg protein, respectively.

`CN[C@@H]1c2ccccc2CN2CCC[C@@H]12` (relative stereo) [Example 34a, cis-10-methylamino-1,2,3,5,10,10a-hexahydropyrrolo[1,2-b]isoquinoline]: the “passive avoidance latency, Test cpd. + scopolamine” value in test [1] (setting [3]) is recorded as 534 ± 76 (3) seconds. For the same compound, the “passive avoidance latency, Test cpd. alone” value in test [1] (test compound 30 mg/kg alone) is given as 559 ± 50 (3) seconds.

In the case of `CN[C@@H]1c2ccccc2CN2CCCC[C@@H]12` (relative stereo) [Example 17, cis-N-methyl-1,3,4,6,11,11a-hexahydro-2H-benzo[b]quinolizidin-11-amine], the “Acetylcholinesterase activity” value is recorded as 2.00 mM substrate hydrolyzed/min/100 μg protein at acetylcholinesterase (compound concentration 100 nM), 1.90 mM substrate hydrolyzed/min/100 μg protein on acetylcholinesterase (compound concentration 10 μM) and 0.80 mM substrate hydrolyzed/min/100 μg protein at acetylcholinesterase (compound concentration 1.0 mM).

For `CN[C@@H]1c2ccccc2CN2C(=O)CC[C@@H]12` (relative stereo) [Example 26b, cis-10Methylamino-1,2,3,5,10,10a-hexahydropyrrolo[1,2b]isoquinolin-3-one], in test [1] (setting [3]), the “passive avoidance latency, Test cpd. + scopolamine” value is 182 ± 163 (4) seconds. In addition, the “passive avoidance latency, Test cpd. alone” value in test [1] (test compound 30 mg/kg alone) is listed as 600 (3) seconds.

Turning to `CC(=O)O[C@@H]1c2ccccc2CN2CCCC[C@@H]12` (relative stereo) [Example 19, O-acetyl-cis-1,3,4,6,11,11a-hexahydro-2H-benzo[b]quinolizidin-11-ol], the “Acetylcholinesterase activity” value on acetylcholinesterase (compound concentration 100 nM) is reported as 2.20 mM substrate hydrolyzed/min/100 μg protein; at acetylcholinesterase (compound concentration 10 μM) it was 1.90 mM substrate hydrolyzed/min/100 μg protein; at acetylcholinesterase (compound concentration 1.0 mM) it was 0.70 mM substrate hydrolyzed/min/100 μg protein.

As for `CN[C@@H]1c2ccccc2CN2CCCC[C@H]12` (relative stereo) [Example 9, trans-N-Methyl-1,3,4,6,11,11a-hexahydro-11-amino-2H-benzo[b]quinolizine], the figures for the “passive avoidance latency, Test cpd. + scopolamine” value in test [1] (setting [2]), in test [1] (setting [3]) and in test [1] (test compound 45 mg/kg + scopolamine 0.8 mg/kg) were 104 ± 48 (12) seconds, 258 ± 156 (5) seconds and 322 ± 112 (8) seconds, respectively. Besides, the “passive avoidance latency, Test cpd. alone” value is recorded as 459 ± 53 (12) seconds in test [1] (setting [4]), 529 ± 78 (6) seconds in test [1] (test compound 30 mg/kg alone) and 340 ± 146 (5) seconds in test [1] (test compound 45 mg/kg alone). Moreover, the “Acetylcholinesterase activity” value on acetylcholinesterase (compound concentration 10 μM) is reported as 2.00 mM substrate hydrolyzed/min/100 μg protein; at acetylcholinesterase (compound concentration 1.0 mM) it was 0.30 mM substrate hydrolyzed/min/100 μg protein.

On to `O[C@@H]1c2ccccc2CN2CCCC[C@@H]12` (relative stereo) [Example 18a, cis-1,3,4,6,11,11a-hexahydro-2H-benzo[b]quinolizidin-11-ol], for which the figures for the “Acetylcholinesterase activity” value on acetylcholinesterase (compound concentration 100 nM), at acetylcholinesterase (compound concentration 10 μM) and at acetylcholinesterase (compound concentration 1.0 mM) were 2.30 mM substrate hydrolyzed/min/100 μg protein, 2.10 mM substrate hydrolyzed/min/100 μg protein and 1.70 mM substrate hydrolyzed/min/100 μg protein, respectively.

With `COc1ccc2c(c1)[C@@H](NCc1ccccc1)[C@H]1CCCCN1C2` (relative stereo) [Example 14, trans-N-Benzyl-9-methoxy-1,3,4,6,11,11a-hexahydro-11-amino-2H benzo[b]quinolizine], in test [1] (setting [3]), the “passive avoidance latency, Test cpd. + scopolamine” value is reported as 211 ± 238 (3) seconds.

With `N[C@@H]1c2ccccc2CN2CCCC[C@H]12` (relative stereo) [Example 15, trans-1,3,4,6,11,11a-Hexahydro-11-amino-2H-benzo[b]quinolizine], the “passive avoidance latency, Test cpd. + scopolamine” value in test [1] (setting [2]) is reported as 148 ± 101 (5) seconds; in test [1] (setting [3]), 132 ± 103 (6) seconds. The “passive avoidance latency, Test cpd. alone” value in test [1] (test compound 10 mg/kg alone) is reported as 292 ± 92 (6) seconds; in test [1] (test compound 30 mg/kg alone) it was 188 ± 102 (6) seconds. The “Acetylcholinesterase activity” value is 2.20 mM substrate hydrolyzed/min/100 μg protein on acetylcholinesterase (compound concentration 100 nM), 2.00 mM substrate hydrolyzed/min/100 μg protein at acetylcholinesterase (compound concentration 10 μM) and 0.20 mM substrate hydrolyzed/min/100 μg protein on acetylcholinesterase (compound concentration 1.0 mM).

In the case of `CN[C@@H]1c2ccccc2CN2CCCC[C@H]12` (relative stereo) [Example 9a, trans-N-Methyl-1,3,4,6,11,11a-hexahydro-11-amino-2H-benzo[b]quinolizine], in test [1] (setting [2]), the “passive avoidance latency, Test cpd. + scopolamine” value is on record as 216 ± 260 (2) seconds. In addition, the “passive avoidance latency, Test cpd. alone” value in test [1] (setting [4]) is on record as 328 ± 177 (3) seconds.

With `CN[C@@H]1c2cc(OC)ccc2CN2CCCC[C@H]12` (relative stereo) [Example 10, trans-N-Methyl-9-methoxy-1,3,4,6,11,11a-hexahydro11-amino-2H-benzo[b]quinolizine], the “passive avoidance latency, Test cpd. + scopolamine” value in test [1] (setting [2]) is listed as 054 ± 20 (6) seconds. The “passive avoidance latency, Test cpd. alone” value in test [1] (test compound 10 mg/kg alone) is listed as 592 ± 9 (6) seconds.

Regarding `CC(=O)O[C@@H]1c2ccccc2CN2CCCC[C@H]12` (relative stereo) [Example 20, O-acetyl-trans-1,3,4,6,11,11a-hexahydro-2H-benzo[b]quinolizidin-11-ol], the entries for the “Acetylcholinesterase activity” value on acetylcholinesterase (compound concentration 100 nM), on acetylcholinesterase (compound concentration 10 μM) and on acetylcholinesterase (compound concentration 1.0 mM) were 2.10 mM substrate hydrolyzed/min/100 μg protein, 1.40 mM substrate hydrolyzed/min/100 μg protein and 0.30 mM substrate hydrolyzed/min/100 μg protein, respectively.

In the case of `O[C@@H]1c2ccccc2CN2CCCC[C@H]12` (relative stereo) [Example 18b, trans-1,3,4,6,11,11a-hexahydro-2H-benzo[b]quinolizidin-11-ol], the “Acetylcholinesterase activity” value at acetylcholinesterase (compound concentration 100 nM) is 2.50 mM substrate hydrolyzed/min/100 μg protein; at acetylcholinesterase (compound concentration 10 μM) it was 1.90 mM substrate hydrolyzed/min/100 μg protein; on acetylcholinesterase (compound concentration 1.0 mM), 1.00 mM substrate hydrolyzed/min/100 μg protein.
